According to patent publication US9260410B2, “P38 MAP kinase inhibitors” (Respivert Ltd., priority 2010, dated 2016):
Like-named read-outs stand apart in the source and are kept apart here.

Tests used:
[1] = system: LPS-induced TNFα release in THP-1 cells; experiment: LPS-induced TNFα release in THP-1 cells; format: cell-based; details: Homo sapiens
Method: THP-1 cells, a human monocytic cell line, were stimulated with 3 μg/mL of LPS (from E. Coli; 0111:B4, Sigma) for 4 hr and the supernatant collected for determination of the TNFα concentration by sandwich ELISA (Duo-set, R&D systems). The inhibition of TNFα production was calculated at each concentration by comparison with vehicle control. The 50% inhibitory concentration (IC50) was determined from the resultant concentration-response curve.

[2] = system: LPS-induced TNFα release in d-U937 cells; experiment: LPS-induced TNFα release in d-U937 cells; format: cell-based; details: Homo sapiens, dU937, 4 h
Method: U937 cells, a human monocytic cell line, were differentiated to macrophage-type cells by incubation with phorbol myristate acetate (PMA; 100 ng/ml) for 48 to 72 hr. […] The supernatant was collected for determination of TNFα and IL-8 concentrations by sandwich ELISA (Duo-set, R&D systems). […] The relative 50% effective concentration (REC50) was determined from the resultant concentration-response curve. The inhibition of IL-8 production was calculated at each concentration of test compound by comparison with vehicle control.

[3] = system: Differentiated U937 cells; experiment: MTT assay: cell viability; format: cell-based, human; details: 10 μg/ml
Method: The supernatant was replaced with 200 μL of new media and 10 μL of MTT stock solution (5 mg/mL) was added to each well. After incubation for 1 hr the media were removed, 200 μL of DMSO was added to each well and the plates were shaken lightly for 1 hr prior to reading the absorbance at 550 nm. The percentage loss of cell viability was calculated for each well relative to vehicle (0.5% DMSO) treatment. Consequently an apparent increase in cell viability for drug treatment relative to vehicle is tabulated as a negative percentage.

IC50 ([1]; THP-1 cells, 3 μg/mL LPS, 4 hr, read-out: LPS/TNFα THP-1 IC50) [nM]	EC50 ([2]; read-out: LPS/TNFα d-U937 REC50) [nM]	Compound	MTT Assay 4 h (cell viability) ([3]; d-U937, 4 hr in 5% FCS)	MTT Assay 24 h (cell viability) ([3]; d-U937, 24 h in 10% FCS)	IC50 ([1]; THP-1, 4 h, read-out: LPS/TNFα THP-1 IC50 (nM)) [nM]	EC50 ([2]; read-out: LPS/TNFα d-U937 REC50 (nM)) [nM]
4.1	4.8	Cc1ccc(-n2nc(C(C)(C)C)cc2NC(=O)Nc2ccc(OCCN3CCOCC3)c3ccccc23)cc1 [BIRB796, 1-(3-tert-Butyl-1-p-tolyl-1H-pyrazol-5-yl)-3-(4-(2-morpholinoethoxy)naphthalen-1-yl)urea]	− (− = <30% inhibition at 10 μg/ml)	− (− = <30% inhibition at 10 μg/ml)		
		CC(=O)Nc1cc(Oc2ccc(NC(=O)Nc3cc(C(C)(C)C)nn3-c3ccc(C)cc3)c3ccccc23)ccn1 [Example 3, N-(4-((4-(3-(3-(tert-Butyl)-1-(p-tolyl)-1H-pyrazol-5-yl)ureido)naphthalen-1-yl)oxy)pyridin-2-yl)acetamide]			1.6	1
